Measured values reported in patent publication US20230390319A1, “INTERFERON GENE STIMULATOR COMPOSITION COMPRISING INDOLIZINE DERIVATIVE AS ACTIVE INGREDIENT” (AJOU UNIVERSITY INDUSTRY-ACADEMIC COOPERATION FOUNDATION, priority 2020, published 2023).
Several values for one entry are separate records, joined by “and”; a condition that tells them apart may be missing. Identical values can stand only once. Like-named read-outs stand apart in the source and are kept apart here.

Assay: PK profiles after IV and PO administration to BALB/c mice
Format: in vivo
Conditions: for MRT last: read-out: MRT(0-t); for MRT inf: read-out: MRT(0-∞)
Description: The pharmacokinetics and oral bioavailability of Compound 42 were investigated in mice following single intravenous (IV) injection and oral administration (PO).

[1] = BALB/c, mouse, blood, po, 20 mg/kg, PO 20.0 mg/kg, individual animals
[2] = BALB/c, mouse, blood, po, 20 mg/kg, PO 20.0 mg/kg, mean n=3
[3] = IV 5.0 mg/kg, individual animals, 5 mg/kg
[4] = PO 20.0 mg/kg, individual animals, 20 mg/kg

## CC(=O)c1ccc(-c2cc(C(=O)c3ccc(C(F)(F)F)cc3)n3ccccc23)cc1 [Compound 42]
BALB/c, mouse, blood, po, 20 mg/kg, PO 20 mg/kg, 24.00 h, individual animals 201-203, read-out: concentration in blood
  concentration at 24 h: 39 ng/mL
BALB/c, mouse, blood, po, 20 mg/kg, PO 20 mg/kg, 24.00 h, mean, read-out: concentration in blood, Mean PO
  concentration at 24 h: 42.4 ng/mL
BALB/c, mouse, blood, po, 20 mg/kg, PO 20.0 mg/kg, individual animals, read-out: AUC(0-t)
  AUC(0-t): 2100 ng·h/mL
BALB/c, mouse, blood, po, 20 mg/kg, PO 20.0 mg/kg, individual animals, read-out: AUC(0-∞)
  AUC(0-inf): 2750 ng·h/mL
BALB/c, mouse, blood, po, 20 mg/kg, PO 20.0 mg/kg, individual animals, read-out: Cmax
  Cmax: 211 ng/mL
[1]
  MRT last: 7.66 h
  MRT inf: 15.5 h
BALB/c, mouse, blood, po, 20 mg/kg, PO 20.0 mg/kg, individual animals, read-out: T1/2 (converted)
  half-life: 11.6 h
BALB/c, mouse, blood, po, 20 mg/kg, PO 20.0 mg/kg, mean n=3, read-out: AUC(0-t)
  AUC(0-t): 2320 ng·h/mL
BALB/c, mouse, blood, po, 20 mg/kg, PO 20.0 mg/kg, mean n=3, read-out: AUC(0-∞)
  AUC(0-inf): 3030 ng·h/mL
BALB/c, mouse, blood, po, 20 mg/kg, PO 20.0 mg/kg, mean n=3, read-out: Cmax
  Cmax: 225 ng/mL
[2]
  MRT last: 7.64 h
  MRT inf: 15.4 h
BALB/c, mouse, blood, po, 20 mg/kg, PO 20.0 mg/kg, mean n=3, read-out: T1/2 (converted)
  half-life: 11.6 h
BALB/c, mouse, blood, po, 20 mg/kg, PO administration of 20 mpk, read-out: AUC∞
  AUC(0-inf): 3030 ng·h/mL
BALB/c, mouse, blood, po, 20 mg/kg, PO administration of 20 mpk, read-out: Cmax
  Cmax: 224 ng/mL
BALB/c, mouse, blood, po, 20 mg/kg, PO administration of 20 mpk, read-out: half-life (converted)
  half-life: 11.6 h
BALB/c, mouse, blood, IV 5.0 mg/kg, mean n=3
  Tmax: 0.083 h
BALB/c, mouse, blood, PO 20.0 mg/kg, individual animals
  Tmax: 1 h
IV 5 mg/kg, 0.083 h, individual animals 101-103, 5 mg/kg
  concentration in blood: 2724.650 ng/mI and 2922.650 ng/mI
IV 5 mg/kg, 0.25 h, individual animals 101-103, 5 mg/kg
  concentration in blood: 1228.390 ng/mI and 1506.240 ng/mI
IV 5 mg/kg, 0.50 h, individual animals 101-103, 5 mg/kg
  concentration in blood: 741.777 ng/mI and 916.427 ng/mI
IV 5 mg/kg, 1.00 h, individual animals 101-103, 5 mg/kg
  concentration in blood: 319.272 ng/mI and 350.728 ng/mI
IV 5 mg/kg, 4.00 h, individual animals 101-103, 5 mg/kg
  concentration in blood: 129.441 ng/mI and 94.754 ng/mI
IV 5 mg/kg, 24.00 h, individual animals 101-103, 5 mg/kg
  concentration in blood: 45.260 ng/mI and 30.044 ng/mI
[3]
  AUCINF_obs AUC(0-∞): 4161.11 ng·h/mL and 3533.38 ng·h/mL
  AUClast AUC(0-t): 3542.76 ng·h/mL and 3195.55 ng·h/mL
  C0: 4048.20 ng/mL and 4063.09 ng/mL
  Cl_obs Cl: 20.0267 mL/min/kg and 23.5847 mL/min/kg
  Cmax: 2724.65 ng/mL and 2922.65 ng/mL
  HL_Lambda_z T1/2: 9.47 h and 7.79 h
  MRTINF_obs MRT(0-∞): 9.83 h and 6.90 h
  MRTlast MRT(0-t): 4.97 h and 3.90 h
  Vss_obs Vss: 11.80918 L/kg and 9.76009 L/kg
  Vz_obs Vz: 16.41627 L/kg and 15.912 L/kg
PO 20 mg/kg, 0.25 h, individual animals 201-203, 20 mg/kg
  concentration in blood: 114.648 ng/mI and 79.841 ng/mI
PO 20 mg/kg, 0.50 h, individual animals 201-203, 20 mg/kg
  concentration in blood: 164.520 ng/mI and 165.563 ng/mI
PO 20 mg/kg, 1.00 h, individual animals 201-203, 20 mg/kg
  concentration in blood: 232.437 ng/mI and 230.000 ng/mI
PO 20 mg/kg, 3.00 h, individual animals 201-203, 20 mg/kg
  concentration in blood: 155.307 ng/mI and 179.295 ng/mI
PO 20 mg/kg, 6.00 h, individual animals 201-203, 20 mg/kg
  concentration in blood: 123.919 ng/mI and 111.651 ng/mI
PO 20 mg/kg, 24.00 h, individual animals 201-203, 20 mg/kg
  concentration in blood: 37.325 ng/mI and 50.885 ng/mI
[4]
  AUC(0-t): 2406.25 ng·h/mL and 2448.08 ng·h/mL
  AUC(0-∞): 2959.50 ng·h/mL and 3385.50 ng·h/mL
  Cmax: 232.44 ng/mL and 230.00 ng/mL
  F: 15.87% and 18.22% and 18.54%
  MRT(0-t): 7.22 h and 8.04 h
  MRT(0-∞): 13.12 h and 17.56 h
  T1/2: 10.27 h and 12.77 h
PO 20.0 mg/kg, mean n=3
  F: 17.55%
